From patent US8889874B2, “Imidazolone-chalcone derivatives as potential anticancer agent and process for the preparation thereof” (Council of Scientific and Industrial Research, priority 2010, dated 2014)
Where two headings read alike, the source gives them in different places.

How the values were obtained:
Experiment in all cases: NCI anticancer screen, SRB assay, 48 h
Assay type in all cases: cell-based, human
BT-549 (breast) = settings: Homo sapiens
Procedure, shortened: (§1)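 Compounds were tested across fifty three human cancer cell lines from nine tumour types. Each line got a dose-response curve of at least five concentrations at 10-fold dilutions, with continuous drug exposure and sulforhodamine B protein staining to estimate viability or growth.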

COLO 205 (colon) = settings: Homo sapiens, COLO 205
Procedure, shortened: as §1

HCC-2998 (colon) = settings: Homo sapiens
Procedure, shortened: as §1

HCT-116 (colon) = settings: Homo sapiens
Procedure, shortened: as §1

HCT-15 (colon) = settings: Homo sapiens
Procedure, shortened: as §1

[1] = system: HOP-62 (non-small cell lung); settings: Homo sapiens
Procedure, shortened: as §1

HT29 (colon) = settings: Homo sapiens
Procedure, shortened: as §1

LOX IMVI (melanoma) = settings: Homo sapiens
Procedure, shortened: as §1

M14 (melanoma) = settings: Homo sapiens
Procedure, shortened: as §1

MCF7 (breast) = settings: Homo sapiens
Procedure, shortened: as §1

MDA-MB-231/ATCC (breast) = settings: Homo sapiens
Procedure, shortened: as §1

MDA-MB-435 (melanoma) = settings: Homo sapiens
Procedure, shortened: as §1

[2] = system: NCI-H322M (non-small cell lung); settings: Homo sapiens
Procedure, shortened: as §1

[3] = system: NCI-H522 (non-small cell lung); settings: Homo sapiens
Procedure, shortened: as §1

NCI/ADR-RES (ovarian) = settings: Homo sapiens, NCI/ADR-RES
Procedure, shortened: as §1

OVCAR-3 (ovarian) = settings: Homo sapiens
Procedure, shortened: as §1

OVCAR-4 (ovarian) = settings: Homo sapiens
Procedure, shortened: as §1

OVCAR-5 (ovarian) = settings: Homo sapiens
Procedure, shortened: as §1

PC-3 (prostate) = settings: Homo sapiens
Procedure, shortened: as §1

[4] = system: RPMI-8226 (leukemia cell line); settings: Homo sapiens
Procedure, shortened: as §1

RXF 393 (renal) = settings: Homo sapiens
Procedure, shortened: as §1

SF-268 (CNS) = settings: Homo sapiens
Procedure, shortened: as §1

SF-295 (CNS) = settings: Homo sapiens
Procedure, shortened: as §1

SK-MEL-2 (melanoma) = settings: Homo sapiens
Procedure, shortened: as §1

SNB-75 (CNS) = settings: Homo sapiens
Procedure, shortened: as §1

TK-10 (renal) = settings: Homo sapiens
Procedure, shortened: as §1

U251 (CNS) = settings: Homo sapiens
Procedure, shortened: as §1

UACC-62 (melanoma) = settings: Homo sapiens
Procedure, shortened: as §1

UO-31 (renal) = settings: Homo sapiens
Procedure, shortened: as §1

[5] = 48 h exposure, SRB, read-out: GI50
[6] = read-out: pGI50 (-log of molar concentration causing 50% inhibition of net cell growth) (converted)

For `COc1ccc(-c2cn(-c3cccc(C(=O)/C=C/c4ccc(O)c(OC)c4)c3)c(=O)[nH]2)cc1` [3b, 1-3-[(E)-3-(4-hydroxy-3-methoxyphenyl)-2-propenoyl]phenyl-4-(4-methoxyphenyl)-2,3-dihydro-1H-2-imidazolone], the GI50 (BT-549 (breast); [5]) was 4.57 µM, the GI50 (BT-549 (breast); [6]) was 4.57 µM and the GI50 (COLO 205 (colon); COLO205, read-out: pGI50 (-log of molar concentration causing 50% inhibition of net cell growth) (converted)) was 6.61 µM. The GI50 (COLO 205 (colon); [5]) was 6.61 µM, the GI50 (HCC-2998 (colon); [5]) was 2.32 µM and the GI50 (HCC-2998 (colon); [6]) was 2.34 µM. For the same compound, the GI50 (HCT-116 (colon); [5]) was 1.93 µM, the GI50 (HCT-116 (colon); [6]) was 1.95 µM and the GI50 (HCT-15 (colon); [5]) was 3.15 µM. The GI50 (HCT-15 (colon); [6]) was 3.16 µM, the GI50 [1, 5] was 5.15 µM and the GI50 [1, 6] was 5.13 µM. For the same compound, the GI50 (HT29 (colon); HT-29, 48 h exposure, SRB, read-out: GI50) was 3.84 µM, the GI50 (HT29 (colon); HT-29, read-out: pGI50 (-log of molar concentration causing 50% inhibition of net cell growth) (converted)) was 3.8 µM and the GI50 (LOX IMVI (melanoma); [5]) was 2.44 µM. For the same compound, the GI50 (LOX IMVI (melanoma); [6]) was 2.45 µM, the GI50 (M14 (melanoma); [5]) was 5.14 µM and the GI50 (M14 (melanoma); [6]) was 5.13 µM. The GI50 (MCF7 (breast); [5]) was 3.18 µM, the GI50 (MCF7 (breast); [6]) was 3.16 µM and the GI50 (MDA-MB-231/ATCC (breast); [5]) was 5.25 µM. The GI50 (MDA-MB-231/ATCC (breast); [6]) was 5.25 µM, the GI50 (MDA-MB-435 (melanoma); [5]) was 3.35 µM and the GI50 (MDA-MB-435 (melanoma); [6]) was 3.39 µM. The GI50 [2, 5] was 8.2 µM, the GI50 [2, 6] was 8.13 µM and the GI50 [3, 5] was 3.48 µM. It also gave a GI50 [3, 6] of 3.47 µM, a GI50 (NCI/ADR-RES (ovarian); NCl/ADR-RES, 48 h exposure, SRB, read-out: GI50) of 2.56 µM and a GI50 (NCI/ADR-RES (ovarian); [6]) of 2.57 µM. For the same compound, the GI50 (OVCAR-3 (ovarian); [5]) was 2.7 µM, the GI50 (OVCAR-3 (ovarian); [6]) was 2.69 µM and the GI50 (OVCAR-4 (ovarian); [5]) was 6.08 µM. The GI50 (OVCAR-4 (ovarian); [6]) was 6.03 µM, the GI50 (OVCAR-5 (ovarian); [5]) was 3.38 µM and the GI50 (OVCAR-5 (ovarian); [6]) was 3.39 µM. The GI50 (PC-3 (prostate); PC-3, read-out: pGI50 (-log of molar concentration causing 50% inhibition of net cell growth) (converted)) was 3.02 µM, the GI50 (PC-3 (prostate); one prostate cancer cell line (PC-3), exposure at least 48 hrs, read-out: GI50) was 3.05 µM and the GI50 [4, 5] was 1.35 µM. The GI50 [4, 6] was 1.35 µM, the GI50 (RXF 393 (renal); RXF 393, 48 h exposure, SRB, read-out: GI50) was 5.85 µM and the GI50 (RXF 393 (renal); RXF-393, read-out: pGI50 (-log of molar concentration causing 50% inhibition of net cell growth) (converted)) was 5.89 µM. It also gave a GI50 (SF-268 (CNS); [5]) of 3.4 µM, a GI50 (SF-268 (CNS); [6]) of 3.39 µM and a GI50 (SF-295 (CNS); [5]) of 13.9 µM. For the same compound, the GI50 (SF-295 (CNS); [6]) was 13.8 µM, the GI50 (SK-MEL-2 (melanoma); [5]) was 5.54 µM and the GI50 (SK-MEL-2 (melanoma); [6]) was 5.5 µM. The GI50 (SNB-75 (CNS); [5]) was 4.73 µM, the GI50 (SNB-75 (CNS); [6]) was 4.68 µM and the GI50 (TK-10 (renal); [5]) was 6.08 µM. The GI50 (TK-10 (renal); [6]) was 6.03 µM, the GI50 (U251 (CNS); U-251, 48 h exposure, SRB, read-out: GI50) was 3.45 µM and the GI50 (U251 (CNS); U-251, read-out: pGI50 (-log of molar concentration causing 50% inhibition of net cell growth) (converted)) was 3.47 µM. The GI50 (UACC-62 (melanoma); [5]) was 3.96 µM, the GI50 (UACC-62 (melanoma); [6]) was 3.98 µM and the GI50 (UO-31 (renal); [5]) was 5.19 µM. For the same compound, the GI50 (UO-31 (renal); [6]) was 5.25 µM.
